From US6387913B1, “Method of treating airway diseases with combined administration of A2B and A3 adenosine receptor antagonists” (priority 2000, dated 2002)

How the values were obtained:
Assay type in all cases: in vivo
A1 adenosine receptor = target: T1, A1 adenosine receptor (Mus musculus, UniProt Q60612); assay: Effect of A1 antagonist on dose-responsiveness to CPA (Penh) in a mouse model of asthma; details: DPCPX 10^-4 M nebulized 3 minutes, CPA dose response 15 minutes later; control and sensitized mice
T1 construct: from tissue; host or cells: live mouse (airways/lung), control and sensitized animals
T1 sequence (Q60612 1-326): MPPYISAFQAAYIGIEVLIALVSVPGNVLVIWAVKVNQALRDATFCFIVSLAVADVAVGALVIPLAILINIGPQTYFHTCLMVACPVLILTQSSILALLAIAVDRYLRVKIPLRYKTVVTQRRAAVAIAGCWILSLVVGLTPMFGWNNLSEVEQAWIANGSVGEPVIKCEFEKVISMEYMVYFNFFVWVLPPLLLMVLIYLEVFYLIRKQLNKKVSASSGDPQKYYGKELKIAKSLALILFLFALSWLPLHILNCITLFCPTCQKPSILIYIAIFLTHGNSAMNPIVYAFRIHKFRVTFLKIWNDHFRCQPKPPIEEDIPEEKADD
Experimental: FIG. 1 illustrates the effect of DPCPX (10^−4 M) on dose-responsiveness to CPA (micrograms per milliliter—ug/ml) in a mouse model of asthma. Control (Con)=dotted line, sensitized (Sen)=broken line, Con+DPCPX=solid line, and Sen+DPCPX=dashed line. Penh=percentage of saline in all Figures.
FIG. 1 illustrates the effect of DPCPX (10^−4 M) on dose-responsiveness to CPA in a mouse model of asthma. The animals were nebulized with DPCPX […] for 3 minutes and 15 minutes later the dose response to CPA was performed. n=8 for each group. CPA is an A1 adenosine receptor agonist; DPCPX is an A1 adenosine receptor antagonist.

A2B adenosine receptor = target: T2, A2B adenosine receptor (Mus musculus, UniProt Q60614); assay: Effect of enprofylline on dose-responsiveness to NECA (Penh) in a mouse model of asthma; details: enprofylline 12 mg/ml nebulized, NECA dose-response 15 minutes later; control and sensitized mice
T2 construct: from tissue; host or cells: live mouse (airways/lung), control and sensitized animals
T2 sequence (Q60614 1-332): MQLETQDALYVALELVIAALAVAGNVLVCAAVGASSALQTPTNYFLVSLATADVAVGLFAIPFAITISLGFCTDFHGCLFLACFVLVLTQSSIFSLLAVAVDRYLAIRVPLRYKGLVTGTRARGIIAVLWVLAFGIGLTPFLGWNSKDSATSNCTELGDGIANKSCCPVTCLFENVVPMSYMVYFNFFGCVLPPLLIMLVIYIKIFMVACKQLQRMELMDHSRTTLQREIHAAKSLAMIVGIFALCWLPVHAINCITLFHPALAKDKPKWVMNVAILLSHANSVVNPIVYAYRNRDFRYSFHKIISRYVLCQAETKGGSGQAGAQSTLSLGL
Experimental: FIG. 3 illustrates the effect of enprofylline (enp; 12 mg/ml) on dose-responsiveness to 5′-(N-ethyl)carboxamidoadenosine (NECA, in ug/ml). Con=dotted line, Sen=dashed line, Con+enp=solid line, and Sen+enp=broken line.
FIG. 3 illustrates the effect of enprofylline (12 mg/ml) on dose-responsiveness to NECA. The animals were nebulized with enprofylline (12 mg/ml) for 1 minutes and 15 minutes later the dose-response to […] was performed. * p<0.05 compared to Sen+Enp group. # p<0.05 compared to control group. n=10 for each group. NECA is a non-selective adenosine receptor agonist; enprofylline is an A2B adenosine receptor antagonist.

A2A adenosine receptor = target: T3, A2A adenosine receptor (Mus musculus, UniProt Q60613); assay: Effect of A2A antagonist on dose-responsiveness to CGS-21680 (Penh) in a mouse model of asthma; details: DMPX 10^-4 M nebulized 3 minutes, agonist dose response 15 minutes later; control and sensitized mice
T3 construct: from tissue; host or cells: live mouse (airways/lung), control and sensitized animals
T3 sequence (Q60613 whole entry): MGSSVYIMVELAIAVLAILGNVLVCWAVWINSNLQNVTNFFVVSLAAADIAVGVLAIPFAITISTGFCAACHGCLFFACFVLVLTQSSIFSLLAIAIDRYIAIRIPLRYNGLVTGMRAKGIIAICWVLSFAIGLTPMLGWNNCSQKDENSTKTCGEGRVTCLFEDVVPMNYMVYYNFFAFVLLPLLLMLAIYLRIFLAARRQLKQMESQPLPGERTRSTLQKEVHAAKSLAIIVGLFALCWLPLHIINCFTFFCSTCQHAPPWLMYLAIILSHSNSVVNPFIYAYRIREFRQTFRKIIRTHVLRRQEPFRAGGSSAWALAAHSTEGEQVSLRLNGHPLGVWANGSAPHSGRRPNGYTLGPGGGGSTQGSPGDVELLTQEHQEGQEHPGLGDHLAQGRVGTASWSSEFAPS
Experimental: FIG. 2 illustrates the effect of DMPX (10^−4 M) on dose-responsiveness to […] (ug/ml). Con=solid line, Sen=dashed line, Con+DMPX=broken line, and Sen+DMPX=dotted line.
FIG. 2 illustrates the effect of DMPX (10^−4 M) on dose-responsiveness to […]. The animals were nebulized with DMPX (10^−4 M) for 3 minutes and 15 minutes later the dose response to CGS-21680 was performed. n=8 for each group. CGS-21680 is an A2A adenosine receptor agonist; DMPX is an A2A adenosine receptor antagonist.

A3 adenosine receptor = target: T4, A3 adenosine receptor (Mus musculus, UniProt Q61618); assay: Effect of MRS1220 on dose-responsiveness to IB-CL-MECA (bronchospasm) in a mouse model of asthma; details: MRS1220 10^-6 M; control and sensitized mice
T4 construct: from tissue; host or cells: live mouse (airways/lung), control and sensitized animals
T4 sequence (Q61618 1-319): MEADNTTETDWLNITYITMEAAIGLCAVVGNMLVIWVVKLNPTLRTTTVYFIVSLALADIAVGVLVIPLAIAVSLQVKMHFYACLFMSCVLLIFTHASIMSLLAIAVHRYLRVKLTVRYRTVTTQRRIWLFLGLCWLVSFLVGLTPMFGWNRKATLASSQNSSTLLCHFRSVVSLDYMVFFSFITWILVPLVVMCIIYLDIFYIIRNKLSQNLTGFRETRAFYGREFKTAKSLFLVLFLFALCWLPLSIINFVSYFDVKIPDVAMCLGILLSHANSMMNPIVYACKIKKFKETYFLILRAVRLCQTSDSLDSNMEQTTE
Excerpt: Con=solid line, Sen=dotted line, Con+MRS=broken line, and Sen+MRS=dashed line.
Therefore, the combination of A3 and A2B antagonists appear better at blocking the adenosine-induced bronchospasm in a mouse model of asthma.

SMILES: CCCn1c(=O)c2[nH]c(C3CCCC3)nc2n(CCC)c1=O [DPCPX]
- effect on dose-responsiveness to CPA (Penh) (A1 adenosine receptor): no A1 adenosine receptor involvement

SMILES: CCCn1c(=O)[nH]c(=O)c2[nH]cnc21 [enprofylline]
- block of the response to NECA (Penh) (A2B adenosine receptor): did not totally block the response

SMILES: C#CCn1c(=O)c2c(ncn2C)n(C)c1=O [DMPX]
- effect on dose-responsiveness to CGS-21680 (Penh) (A2A adenosine receptor): no A2A adenosine receptor involvement

SMILES: O=C(Cc1ccccc1)Nc1nc2ccc(Cl)cc2c2nc(-c3ccco3)nn12 [MRS1220]
- block of the bronchospasm produced by IB-CL-MECA (A3 adenosine receptor): did not completely block the bronchospasm
